Measurements taken from patent US10154957B2, “Microneedle device having a peptide therapeutic agent and an amino acid and methods of making and using the same” (3M INNOVATIVE PROPERTIES COMPANY, priority 2011, dated 2018).

Test: Percent purity of PTHrP analogue (10 mg/mL formulations) in coating on arrays stored at 25° C./60% RH or 5° C./ambient RH (HPLC)
Assay type: physicochemical
Protocol: The protein or polypeptide content in the formulation coated on the microneedle arrays was determined using an Agilent 1100 HPLC system (Agilent Technologies, Wilmington, Del.) equipped with a binary pump, well-plated thermostated autosampler, thermostated column compartment, and a diode array UV detector. A Zorbax 300SB-C8 column (Agilent Technologies, Wilmington, Del.) having a 5 μm particle size and 2.1×150 mm inner diameter was used for the separations. The column was maintained at 50° C. The mobile phase consisted of two eluents. Eluent A was 0.1% TFA (trifluoroacetic acid) in water and eluent B was 0.1% TFA in acetonitrile (Spectrum Chemical, New Brunswick, N.J.). A linear gradient from 80/20 to 50/50 (A/B) was applied over 30 minutes. The flow rate was 0.4 mL/minute and the UV detection wavelength was set at 214 nm. The total run time was 34 minutes and the sample injection volume was 15 μL.
A sample formulation containing 10 mg/mL of [Glu^22,25,Leu^23,28,31,Aib^29,Lys^26,30]hPTHrP(1-34)NH2 and 10 mg/mL of L-histidine monohydrochloride (His-HCl) in PBS was prepared. A control formulation was also prepared containing 10 mg/mL of [Glu^22,25,Leu^23,28,31,Aib^29,Lys^26,30]hPTHrP(1-34)NH2 in PBS. […] Microneedle arrays were coated with either the sample or the control formulation. The coating was applied by dropwise addition of 40 μL of the formulation to the portion of the array defined by the octagon shaped pattern of microneedles. The coated arrays (both sample and control formulation coated) were dried in an oven at 35° C. for 1.5 hours followed by 30° C. for 15 hours.
After drying, the coated arrays were placed in a storage chamber that was maintained at either 25° C./60% RH or 5° C./ambient RH. The [Glu^22,25,Leu^23,28,31,Aib^29,Lys^26,30]hPTHrP(1-34)NH2 content of the coated arrays was determined following storage in the chamber for 7 days, 14 days, 28 days, and 2 months. The initial [Glu^22,25,Leu^23,28,31,Aib^29,Lys^26,30]hPTHrP(1-34)NH2 content was also determined using freshly coated arrays (both sample and control formulation coated). The arrays used to determine initial content were stored in a refrigerator at about 4° C. and analyzed within one day of being prepared. At the designated time point, an array was taken from the chamber and washed with PBS (3.5 mL) to remove the coating from the array. An aliquot of the resulting wash solution was analyzed for [Glu^22,25,Leu^23,28,31,Aib^29,Lys^26,30]hPTHrP(1-34)NH2 content using the HPLC method described above. The results were quantified against an external standard of [Glu^22,25,Leu^23,28,31,Aib^29,Lys^26,30]hPTHrP(1-34)NH2. At each time point, the percent purity of [Glu^22,25,Leu^23,28,31,Aib^29,Lys^26,30]hPTHrP(1-34)NH2 in the coating was determined by measuring the peak area for [Glu^22,25,Leu^23,28,31,Aib^29,Lys^26,30]hPTHrP(1-34)NH2 in the selected coating and dividing it by the total peak area measured for all [Glu^22,25,Leu^23,28,31,Aib^29,Lys^26,30]hPTHrP(1-34)NH2 related peaks.
The same procedure as described in Example 10 was used with the exception that the sample formulation contained 10 mg/mL of L-arginine hydrochloride, instead of L-histidine monohydrochloride.

Substance: [Glu^22,25,Leu^23,28,31,Aib^29,Lys^26,30]hPTHrP(1-34)NH2
- Percent Purity of [Glu^22,25, Leu^23,28,31, Aib^29, Lys^26,30]hPTHrP(1-34)NH2 (Amino Acid L-Arginine (Arg-HCl 10 mg/mL), peptide in PBS, Storage Condition 5° C./ambient RH, 0 day): 99.0%
- Percent Purity of [Glu^22,25, Leu^23,28,31, Aib^29, Lys^26,30]hPTHrP(1-34)NH2 (Amino Acid L-Arginine (Arg-HCl 10 mg/mL), peptide in PBS, Storage Condition 5° C./ambient RH, 2 months): 98.4%
- Percent Purity of [Glu^22,25, Leu^23,28,31, Aib^29, Lys^26,30]hPTHrP(1-34)NH2 (Amino Acid L-Arginine (Arg-HCl 10 mg/mL), peptide in PBS, Storage Condition 5° C./ambient RH, 7 day): 98.8%
- Percent Purity of [Glu^22,25, Leu^23,28,31, Aib^29, Lys^26,30]hPTHrP(1-34)NH2 (Amino Acid L-Arginine (Arg-HCl 10 mg/mL), peptide in PBS, Storage Condition 5° C./ambient RH, 14 day): 98.8%
- Percent Purity of [Glu^22,25, Leu^23,28,31, Aib^29, Lys^26,30]hPTHrP(1-34)NH2 (Amino Acid L-Arginine (Arg-HCl 10 mg/mL), peptide in PBS, Storage Condition 5° C./ambient RH, 28 day): 98.8%
- Percent Purity of [Glu^22,25, Leu^23,28,31, Aib^29, Lys^26,30]hPTHrP(1-34)NH2 (Amino Acid L-Arginine (Arg-HCl 10 mg/mL), peptide in PBS, Storage Condition 25° C./60% RH, 0 day): 99.0%
- Percent Purity of [Glu^22,25, Leu^23,28,31, Aib^29, Lys^26,30]hPTHrP(1-34)NH2 (Amino Acid L-Arginine (Arg-HCl 10 mg/mL), peptide in PBS, Storage Condition 25° C./60% RH, 2 months): 97.8%
- Percent Purity of [Glu^22,25, Leu^23,28,31, Aib^29, Lys^26,30]hPTHrP(1-34)NH2 (Amino Acid L-Arginine (Arg-HCl 10 mg/mL), peptide in PBS, Storage Condition 25° C./60% RH, 7 day): 98.8%
- Percent Purity of [Glu^22,25, Leu^23,28,31, Aib^29, Lys^26,30]hPTHrP(1-34)NH2 (Amino Acid L-Arginine (Arg-HCl 10 mg/mL), peptide in PBS, Storage Condition 25° C./60% RH, 14 day): 98.6%
- Percent Purity of [Glu^22,25, Leu^23,28,31, Aib^29, Lys^26,30]hPTHrP(1-34)NH2 (Amino Acid L-Arginine (Arg-HCl 10 mg/mL), peptide in PBS, Storage Condition 25° C./60% RH, 28 day): 98.7%
- Percent Purity of [Glu^22,25, Leu^23,28,31, Aib^29, Lys^26,30]hPTHrP(1-34)NH2 (Amino Acid L-Histidine (His-HCl 10 mg/mL), peptide 10 mg/mL in PBS, Storage Condition 5° C./ambient RH, 2 months): 98.7%
- Percent Purity of [Glu^22,25, Leu^23,28,31, Aib^29, Lys^26,30]hPTHrP(1-34)NH2 (Amino Acid L-Histidine (His-HCl 10 mg/mL), peptide 10 mg/mL in PBS, Storage Condition 5° C./ambient RH, Day 7): 98.9%
- Percent Purity of [Glu^22,25, Leu^23,28,31, Aib^29, Lys^26,30]hPTHrP(1-34)NH2 (Amino Acid L-Histidine (His-HCl 10 mg/mL), peptide 10 mg/mL in PBS, Storage Condition 5° C./ambient RH, Day 14): 98.9%
- Percent Purity of [Glu^22,25, Leu^23,28,31, Aib^29, Lys^26,30]hPTHrP(1-34)NH2 (Amino Acid L-Histidine (His-HCl 10 mg/mL), peptide 10 mg/mL in PBS, Storage Condition 5° C./ambient RH, Day 28): 98.9%
- Percent Purity of [Glu^22,25, Leu^23,28,31, Aib^29, Lys^26,30]hPTHrP(1-34)NH2 (Amino Acid L-Histidine (His-HCl 10 mg/mL), peptide 10 mg/mL in PBS, Storage Condition 5° C./ambient RH, Initial): 99.0%
- Percent Purity of [Glu^22,25, Leu^23,28,31, Aib^29, Lys^26,30]hPTHrP(1-34)NH2 (Amino Acid L-Histidine (His-HCl 10 mg/mL), peptide 10 mg/mL in PBS, Storage Condition 25° C./60% RH, 2 months): 98.6%
- Percent Purity of [Glu^22,25, Leu^23,28,31, Aib^29, Lys^26,30]hPTHrP(1-34)NH2 (Amino Acid L-Histidine (His-HCl 10 mg/mL), peptide 10 mg/mL in PBS, Storage Condition 25° C./60% RH, Day 7): 98.9%
- Percent Purity of [Glu^22,25, Leu^23,28,31, Aib^29, Lys^26,30]hPTHrP(1-34)NH2 (Amino Acid L-Histidine (His-HCl 10 mg/mL), peptide 10 mg/mL in PBS, Storage Condition 25° C./60% RH, Day 14): 98.8%
- Percent Purity of [Glu^22,25, Leu^23,28,31, Aib^29, Lys^26,30]hPTHrP(1-34)NH2 (Amino Acid L-Histidine (His-HCl 10 mg/mL), peptide 10 mg/mL in PBS, Storage Condition 25° C./60% RH, Day 28): 98.9%
- Percent Purity of [Glu^22,25, Leu^23,28,31, Aib^29, Lys^26,30]hPTHrP(1-34)NH2 (Amino Acid L-Histidine (His-HCl 10 mg/mL), peptide 10 mg/mL in PBS, Storage Condition 25° C./60% RH, Initial): 99.0%
- Percent Purity of [Glu^22,25, Leu^23,28,31, Aib^29, Lys^26,30]hPTHrP(1-34)NH2 (Amino Acid None (control), peptide 10 mg/mL in PBS, Storage Condition 5° C./ambient RH, 2 months): 97.3%
- Percent Purity of [Glu^22,25, Leu^23,28,31, Aib^29, Lys^26,30]hPTHrP(1-34)NH2 (Amino Acid None (control), peptide 10 mg/mL in PBS, Storage Condition 5° C./ambient RH, Day 7): 98.2%
- Percent Purity of [Glu^22,25, Leu^23,28,31, Aib^29, Lys^26,30]hPTHrP(1-34)NH2 (Amino Acid None (control), peptide 10 mg/mL in PBS, Storage Condition 5° C./ambient RH, Day 14): 98.4%
- Percent Purity of [Glu^22,25, Leu^23,28,31, Aib^29, Lys^26,30]hPTHrP(1-34)NH2 (Amino Acid None (control), peptide 10 mg/mL in PBS, Storage Condition 5° C./ambient RH, Day 28): 97.6%
- Percent Purity of [Glu^22,25, Leu^23,28,31, Aib^29, Lys^26,30]hPTHrP(1-34)NH2 (Amino Acid None (control), peptide 10 mg/mL in PBS, Storage Condition 5° C./ambient RH, Initial): 98.7%
- Percent Purity of [Glu^22,25, Leu^23,28,31, Aib^29, Lys^26,30]hPTHrP(1-34)NH2 (Amino Acid None (control), peptide 10 mg/mL in PBS, Storage Condition 25° C./60% RH, 2 months): 96.3%
- Percent Purity of [Glu^22,25, Leu^23,28,31, Aib^29, Lys^26,30]hPTHrP(1-34)NH2 (Amino Acid None (control), peptide 10 mg/mL in PBS, Storage Condition 25° C./60% RH, Day 7): 98.0%
- Percent Purity of [Glu^22,25, Leu^23,28,31, Aib^29, Lys^26,30]hPTHrP(1-34)NH2 (Amino Acid None (control), peptide 10 mg/mL in PBS, Storage Condition 25° C./60% RH, Day 14): 97.7%
- Percent Purity of [Glu^22,25, Leu^23,28,31, Aib^29, Lys^26,30]hPTHrP(1-34)NH2 (Amino Acid None (control), peptide 10 mg/mL in PBS, Storage Condition 25° C./60% RH, Day 28): 97.5%
- Percent Purity of [Glu^22,25, Leu^23,28,31, Aib^29, Lys^26,30]hPTHrP(1-34)NH2 (Amino Acid None (control), peptide 10 mg/mL in PBS, Storage Condition 25° C./60% RH, Initial): 98.7%
